Experimental data: the CheMixHub ionic liquid set

Experiment: xn = mol fraction of the nth substance listed

CC[n+]1ccn(C)c1.N#C[S-] + CCO
101 kPa
Conditions | viscosity [mPa·s]
283.15 K, x1 = 0.8045 | 22.86
283.15 K, x1 = 0.8971 | 29.28
293.15 K, x1 = 0.8971 | 20.53
303.15 K, x1 = 0.0504 | 1.31
303.15 K, x1 = 0.2012 | 2.31
303.15 K, x1 = 0.951 | 17.12
313.15 K, x1 = 0.0504 | 1.1
313.15 K, x1 = 0.6016 | 6.04
313.15 K, x1 = 0.7018 | 7.47
313.15 K, x1 = 0.8971 | 11.5
313.15 K, x1 = 1 | 14.3
323.15 K, x1 = 0.7018 | 6.02
323.15 K, x1 = 0.951 | 10.17

C[N+](C)(C)CCC[N+]1(C)CCCCC1.N#C[N-]C#N.N#C[N-]C#N + CCO
viscosity [mPa·s], 100 kPa
Conditions | x1 = 0.0999 | x1 = 0.2001 | x1 = 0.3002 | x1 = 0.3999 | x1 = 0.5002 | x1 = 0.6001 | x1 = 0.7003 | x1 = 0.7998 | x1 = 0.8995 | x1 = 1
293.15 K | 6.82 | 19.7 | 47.6 | 115 | 280 | 596 | 1088 | 1716 | 2737 | 4503
303.15 K | 5.39 | 15 | 33 | 73.3 | 164 | 330 | 545 | 830 | 1240 | 1837
313.15 K | 4.38 | 11.6 | 24.1 | 49.6 | 106 | 211 | 310 | 461 | 624 | 860
323.15 K | 3.68 | 9.19 | 18.1 | 35.2 | 70.5 | 132 | 192 | 267 | 360 | 460
333.15 K | 3.18 | 7.55 | 14.1 | 26.2 | 50.7 | 85.9 | 126 | 171 | 219 | 270

CCOC(C)(C)C + CCO + CCOS(=O)(=O)[O-].CC[n+]1ccn(C)c1
298.15 K, 101 kPa
Conditions | viscosity [mPa·s]
x2 = 0.1248, x1 = 0.0174 | 63
x2 = 0.1973, x1 = 0.0324 | 46.3
x2 = 0.3162, x1 = 0.029 | 30.74
x2 = 0.395, x1 = 0.0475 | 21.09
x2 = 0.4866, x1 = 0.0465 | 14.2
x2 = 0.5653, x1 = 0.0501 | 9.77
x2 = 0.6539, x1 = 0.3132 | 0.878
x2 = 0.6567, x1 = 0.0845 | 5.13
x2 = 0.6872, x1 = 0.0848 | 4.39
x2 = 0.6916, x1 = 0.2368 | 1.352
x2 = 0.6923, x1 = 0.035 | 5.65
x2 = 0.7064, x1 = 0.1236 | 3.102
x2 = 0.7089, x1 = 0.2556 | 0.974
x2 = 0.7162, x1 = 0.1736 | 1.937
x2 = 0.7254, x1 = 0.0338 | 4.79
x2 = 0.7605, x1 = 0.0564 | 3.565
x2 = 0.7622, x1 = 0.1589 | 1.568
x2 = 0.7999, x1 = 0.077 | 2.401
x2 = 0.8182, x1 = 0.1407 | 1.208
x2 = 0.841, x1 = 0.072 | 1.86
x2 = 0.902, x1 = 0.0527 | 1.428

CCCCCCCCCCCCCCCC[N+](C)(C)C.[Br-] + CCO + O
298.2 K, 101.3 kPa
Conditions | electrical conductivity [S/m]
x1 = 1.26e-06, x2 = 0.05064 | 0.00062
x1 = 3.09e-06, x2 = 0.05064 | 0.00117
x1 = 5.13e-06, x2 = 0.05064 | 0.00178
x1 = 7.19e-06, x2 = 0.05064 | 0.00236
x1 = 9.2e-06, x2 = 0.05064 | 0.00294
x1 = 1.12e-05, x2 = 0.05064 | 0.0035
x1 = 1.326e-05, x2 = 0.05064 | 0.00406
x1 = 1.526e-05, x2 = 0.05064 | 0.00458
x1 = 1.726e-05, x2 = 0.05064 | 0.00501
x1 = 1.932e-05, x2 = 0.05064 | 0.0055
x1 = 2.135e-05, x2 = 0.05064 | 0.00592
x1 = 2.333e-05, x2 = 0.05064 | 0.00629
x1 = 2.537e-05, x2 = 0.05064 | 0.00663
x1 = 2.735e-05, x2 = 0.05064 | 0.00698
x1 = 2.922e-05, x2 = 0.05064 | 0.00728
x1 = 3.097e-05, x2 = 0.05064 | 0.00754
x1 = 3.328e-05, x2 = 0.05064 | 0.00788

CCCCCCCCCCCCOS(=O)(=O)[O-].[Na+] + CCO + O
298 K, 100 kPa, frequency 0.001 MHz
Conditions | electrical conductivity [S/m]
x2 = 0.02563, x3 = 0.9741 | 0.0809
x2 = 0.06861, x3 = 0.9309 | 0.103
x2 = 0.06862, x3 = 0.9311 | 0.0828

CCCCCCCCn1cc[n+](C)c1.[Cl-] + CCO + O
298.15 K, 101 kPa
Conditions | viscosity [mPa·s]
x2 = 0.0467, x3 = 0.9348 | 2.514
x2 = 0.0558, x3 = 0.9143 | 3.908
x2 = 0.0679, x3 = 0.8854 | 7.008
x2 = 0.0766, x3 = 0.8576 | 10.5
x2 = 0.0826, x3 = 0.91 | 2.007
x2 = 0.0929, x3 = 0.8165 | 13.64
x2 = 0.0962, x3 = 0.8862 | 2.748
x2 = 0.0984, x3 = 0.1869 | 2330
x2 = 0.1218, x3 = 0.7443 | 18.9
x2 = 0.1329, x3 = 0.8601 | 2.881
x2 = 0.1594, x3 = 0.6721 | 21.9
x2 = 0.1807, x3 = 0.7375 | 7.695
x2 = 0.1867, x3 = 0.7875 | 3.207
x2 = 0.1968, x3 = 0.1665 | 855
x2 = 0.2008, x3 = 0.4721 | 68.1
x2 = 0.2008, x3 = 0.7927 | 2.822
x2 = 0.2235, x3 = 0.6582 | 10.37
x2 = 0.2254, x3 = 0.7596 | 2.603
x2 = 0.2604, x3 = 0.7162 | 3.164
x2 = 0.2624, x3 = 0.3089 | 119.1
x2 = 0.2733, x3 = 0.7208 | 2.591
x2 = 0.2777, x3 = 0.4267 | 41.41
x2 = 0.2833, x3 = 0.1486 | 402
x2 = 0.2958, x3 = 0.669 | 3.56
x2 = 0.3057, x3 = 0.6808 | 2.662
x2 = 0.3069, x3 = 0.6239 | 5.009
x2 = 0.3218, x3 = 0.5748 | 7.072
x2 = 0.3263, x3 = 0.5386 | 9.47
x2 = 0.3335, x3 = 0.6189 | 3.791
x2 = 0.3386, x3 = 0.6405 | 2.729
x2 = 0.3599, x3 = 0.268 | 58.73
x2 = 0.3651, x3 = 0.6297 | 2.282
x2 = 0.366, x3 = 0.5069 | 8.153
x2 = 0.3714, x3 = 0.5658 | 4.285
x2 = 0.3806, x3 = 0.3659 | 24.18
x2 = 0.3954, x3 = 0.5743 | 2.873
x2 = 0.4166, x3 = 0.5418 | 3.353
x2 = 0.4363, x3 = 0.4778 | 4.956
x2 = 0.4432, x3 = 0.2332 | 33.75
x2 = 0.4437, x3 = 0.5387 | 2.553
x2 = 0.4443, x3 = 0.5002 | 3.63
x2 = 0.4617, x3 = 0.4303 | 5.846
x2 = 0.5079, x3 = 0.2907 | 11.59
x2 = 0.532, x3 = 0.3966 | 3.823
x2 = 0.5377, x3 = 0.4533 | 1.472
x2 = 0.544, x3 = 0.4234 | 2.522
x2 = 0.5558, x3 = 0.186 | 16.16
x2 = 0.5841, x3 = 0.3951 | 2.156
x2 = 0.5878, x3 = 0.3295 | 3.918
x2 = 0.6004, x3 = 0.2361 | 7.378
x2 = 0.6077, x3 = 0.3891 | 1.864
x2 = 0.6374, x3 = 0.3073 | 2.912
x2 = 0.6743, x3 = 0.2932 | 2.278
x2 = 0.6985, x3 = 0.0625 | 11.08
x2 = 0.6991, x3 = 0.1777 | 4.71
x2 = 0.7005, x3 = 0.2845 | 1.923
x2 = 0.7599, x3 = 0.1919 | 2.375
x2 = 0.7937, x3 = 0.0428 | 5.553
x2 = 0.7997, x3 = 0.1184 | 2.964
x2 = 0.847, x3 = 0.1454 | 1.508

OCCN(CCO)CCO + CCOS(=O)(=O)[O-].CC[n+]1ccn(C)c1
100 kPa
Conditions | electrical conductivity [S/m] | viscosity [mPa·s]
293.15 K, x1 = 0.153 | – | 126.2
293.15 K, x1 = 0.617 | – | 159.3
293.15 K, x1 = 0.967 | – | 714
298.15 K, x1 = 0.787 | 0.0457 | 202.4
298.15 K, x1 = 0.929 | 0.0087 | 395
298.15 K, x1 = 0.967 | 0.00372 | 478
298.15 K, x2 = 0.003 | 0.000422 | –
298.15 K, x2 = 0.006 | 0.00076 | –
298.15 K, x2 = 0.019 | 0.00206 | –
303.15 K, x1 = 0.617 | – | 89
303.15 K, x1 = 0.866 | – | 203.4
303.15 K, x1 = 0.929 | – | 274.8
303.15 K, x1 = 0.967 | – | 328
303.15 K, x2 = 0.006 | – | 389
313.15 K, x1 = 0.153 | 0.66 | 50.4
313.15 K, x2 = 0.003 | 0.00117 | –
313.15 K, x2 = 0.006 | 0.00211 | –
